In ChEMBL document CHEMBL3507680, “University of Dundee, Gates Library screen for HepG2 cell viability”:

Experiment: Human HepG2 cell viability assay in 384 well format
Type: toxicity, cell-based
Design: dose 125 nL, time 70.5 hour; cytotoxicity at 70.5 h: concentration not given beside the values
Details: HepG2 cells, read-out: Inhibition

Structure (SMILES)	cytotoxicity at 70.5 h
CCCc1nc(N[C@H]2COC[C@@H]2N2CCCCC2)c2cnn(C)c2n1	-13.5%
C1CC(CN2C[C@H]3CC[C@@H]2CN(Cc2noc(C4CCCC4)n2)C3)C1	22.2%
CS(=O)(=O)N1CCC(c2nnc(CN3CCCC3)n2C2CC2)CC1	0.642%
COc1cc(C)cc(C(C(=O)O)N(C)Cc2ccncc2C)c1OC (stereo not drawn)	4.18%
Cc1ccc(-c2cc(C(=O)N(C)Cc3noc4c3CCCC4)[nH]n2)o1	43.8%
N[C@@H]1c2ccccc2C2(CCN(C(=O)c3ccc(Cl)cn3)CC2)[C@H]1O	18.5%
COCCN(Cc1nccs1)C(=O)c1c(C)cc(C)[nH]c1=O	12.2%
Cc1nc(NCc2noc(C3CCCO3)n2)c2ccsc2n1 (stereo not drawn)	26.9%
O=C1CNCC(C(=O)N2CC(Oc3ccccc3Cl)C2)N1 (stereo not drawn)	-7.25%
Cc1n[nH]c(C)c1CCC(=O)N1CCc2c(nc[nH]c2=O)C1	-22.4%
CN1CCC(C)(CN(C)Cc2ccc(CCC(C)(C)O)cc2)C1 (stereo not drawn)	-6.89%
COCCCN1CC2(CCCN(c3ncc(Cl)cc3F)C2)CCC1=O (stereo not drawn)	3.03%
O=C(CCCN1CCOCC1)N1CCCC(CO)(CC2CC2)C1 (stereo not drawn)	-9.81%
O=C(c1cc2ccccc2s1)N1CCC(C(=O)O)(n2cccn2)CC1	-4.38%
CCOC(=O)C1(Cc2cccc(OC)c2)CCN(Cc2ncc[nH]2)CC1	-8.46%
CCc1cc(NCCc2cnccn2)n2nc(C)c(C)c2n1	-5.77%
Cc1nc(C)c(C(=O)N2CCc3[nH]nc(COc4ccccc4)c3C2)s1	-1.76%
Cc1cc(CN2CCC(CNC(=O)c3cnc(C)nc3C)C2)[nH]n1 (stereo not drawn)	7.59%
CC(=O)c1cc(C(=O)N2CC[C@@H]3CC[C@H](C2)N3C)c(=O)[nH]c1C	22.4%
CN1CCCN(C(=O)c2csc3nc(-c4ccc(Cl)cc4)cn23)CC1	-23%
CCCc1nc(CNC(=O)Cc2csc(C)n2)cs1	0.825%
Cc1c(CN2CCC(C(=O)O)(n3ccnc3)CC2)oc2ccccc12	-7.33%

Structure (SMILES)	cytotoxicity at 70.5 h
CC(C)Oc1cccc(CN2CCC(C(C)N3CCOCC3)CC2)c1 (stereo not drawn)	-8.8%
COc1ccc([C@@H]2CN(c3cnccn3)C[C@H]2N(C)C)cc1	22%
CCCn1ncc(CN(Cc2ccsc2)Cc2ccco2)c1C	-6%
CN(CCSc1ccccc1)C(=O)C(c1cccnc1)N1CCOCC1 (stereo not drawn)	33.5%
CCNc1ncc(C(=O)N2CCC(c3ccccc3C(=O)O)C2)cn1 (stereo not drawn)	2.76%
CCc1cn[nH]c1C1CCCN(C(=O)c2noc(C)c2COC)C1 (stereo not drawn)	-10.2%
CN(C)C(=O)c1ccc(C2CCCN2C(=O)c2cccc3c2OCC3)s1 (stereo not drawn)	-6.24%
Cc1ccc(CN2CCN(C(=O)c3ccccc3O)C(C)C2=O)cc1 (stereo not drawn)	-18.7%
CCNC(=O)N1CCCC(C(=O)c2cccc(OC(C)C)c2)C1 (stereo not drawn)	-6.88%
O=C1CCC2(CCNCC2)CN1Cc1nncn1CCc1ccccc1	-8.25%
Cc1cnc(C)c(N2CCN(CCCc3ccncc3)CC2)n1	6.37%
Cc1cc(C[C@@H]2COC[C@@H]2NC(=O)CN2CCOC2=O)on1	-7.96%
CCc1[nH]c2ccc(CNC(=O)Cc3c(C)nc(N)nc3C)cc2c1C	1.33%
CN1CCC(Cc2noc(-c3cn(Cc4ccc(F)cc4)nn3)n2)CC1	-3.72%
CCN1CC(C(=O)NCCn2cccc2)CCC1=O (stereo not drawn)	-7.13%
Cc1ccc(CCNC(=O)CC2COCCN2S(=O)(=O)N(C)C)s1 (stereo not drawn)	-11%
COc1cc(CN2CCCC2)ccc1Oc1ccc2c(c1)CC(CN)O2 (stereo not drawn)	1.9%
Cc1cnn(CC(=O)N2CCC3(CCC(=O)N(CC(C)O)C3)CC2)c1 (stereo not drawn)	-5.26%
O=C(CCc1nc(Cl)n[nH]1)N[C@H]1CC[C@H]1NC1Cc2ccccc2C1	-9.72%
CN(C)C[C@@H]1CN(C2CCN(c3ccc(Cl)cc3)CC2)C[C@@H]1CO	-10.6%
COc1nc2c(cc1C(=O)N1C[C@@H](N)C[C@H]1C(=O)NC(C)C)CCC2	-2.39%
